In US7517902B2, “Substituted indazoles, compositions containing the same, and the preparation and use thereof” (Aventis Pharma S.A., priority 2004, dated 2009):
Counter-ions that a name gives are not always drawn.

Experiments:
[1] = target: T1, CDK4/cyclin D1 kinase complex (Homo sapiens, UniProt P11802); test: CDK4/cyclinD1 Flashplate assay in 96-well format; type: biochemical; details: read-out: IC 50 CDK4
T1 construct: HA (Hemagglutinin tag) (C); made in house; host or cells: Sf9 insect cells (baculovirus co-infection)
T1 sequence (P11802 whole entry): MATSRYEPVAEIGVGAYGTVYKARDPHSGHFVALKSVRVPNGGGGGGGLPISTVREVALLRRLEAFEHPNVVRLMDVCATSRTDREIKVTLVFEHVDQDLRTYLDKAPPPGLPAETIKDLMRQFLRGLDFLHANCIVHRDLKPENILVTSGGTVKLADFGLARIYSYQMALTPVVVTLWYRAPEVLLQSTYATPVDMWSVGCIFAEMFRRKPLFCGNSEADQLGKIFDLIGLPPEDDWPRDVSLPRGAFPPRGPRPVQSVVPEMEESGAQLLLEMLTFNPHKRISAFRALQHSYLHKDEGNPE
T1 sequence (P24385 whole entry partner): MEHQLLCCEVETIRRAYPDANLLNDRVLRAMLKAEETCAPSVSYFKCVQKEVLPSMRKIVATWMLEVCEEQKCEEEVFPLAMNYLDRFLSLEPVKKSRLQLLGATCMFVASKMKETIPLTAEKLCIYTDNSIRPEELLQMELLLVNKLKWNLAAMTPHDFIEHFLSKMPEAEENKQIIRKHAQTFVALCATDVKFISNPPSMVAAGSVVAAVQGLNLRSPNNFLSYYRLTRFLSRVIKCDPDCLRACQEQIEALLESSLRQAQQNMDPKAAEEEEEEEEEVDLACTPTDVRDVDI
Description: Purification of the CDK4-HA/cyclin D1-(His)6 complex by IMAC (Immobilized Metal Affinity Chromatography):
Two recombinant baculoviruses carrying the human sequences coding respectively for CDK4-HA (C-terminal fusion with the Hemagglutinin tag) and for cyclin D1-(His)6 are used to co-infect Sf9 insect cells. Sixty hours after the beginning of co-infection, the cells are harvested by centrifugation and then frozen at −20° C. until their use. After thawing in buffer A (HEPES 200 mM pH 7.0, NaCl 50 mM, MgCl2 2 mM, imidazole 25 mM, TCEP 1 mM, glycerol 10% (w/v), NaF 1 mM, Na3VO4 1 mM), stirring at 4° C. for 1 h, and centrifugation, the complex present in the lysis supernatant is purified by affinity chromatography on nickel (IMAC) and stored at −80° C.
CDK4/cyclinD1 Flashplate Assay in 96-Well Format.
An assay in 96-well “Flashplate” (scintillation plate) plates coated with streptavidin is used to evaluate the inhibition of the CDK4/cyclin D1 kinase complex by the products of the invention. To perform this test, the biotinylated peptide substrate, a fragment of the pRb protein, (biotinyl-[…]-amide), is dissolved at a concentration of 2 mM in kinase buffer (HEPES/NaOH 50 mM, NaCl 1 mM, MgCl2 5 mM, pH=7.5) to form a stock solution, which is stored at −20° C. in the form of 110 μl aliquots. On the day of the experiment, an aliquot of this solution is thawed and diluted in kinase buffer containing 1 mM of dithiothreitol, added at the time of use, so as to give a final peptide concentration of 2.571 μM. seventy μl of this solution are deposited in each well of the Flashplate plate, to give a final substrate concentration of 1.8 μM during the enzymatic reaction, which is performed in a final volume of 100 μl (cf. below). Intermediate dilutions of inhibitors (products of the invention) at various concentrations are prepared in DMSO from 10 mM stock solutions in separate tubes. In this way dilutions at 1000 μM, 333.3 μM, 111.1 μM, 37.03 μM, 12.35 μM, 4.11 μM and 1.37 μM are produced. One μl of each of these solutions (or 1 μl of DMSO for the controls) is subsequently transferred into the wells of the assay plate. To each well there is subsequently added 19 μl of a solution of a mixture of adenosine triphosphate (ATP) and ATPγ^33P in the kinase buffer at a concentration of 5.26 μM of total ATP and 78.9 μCi/ml of ^33P. The enzymatic reaction is triggered by adding 10 μl per well of a solution of CDK4/cyclin D1 complex at 250 nM in the kinase buffer, containing 1 mM of dithiothreitol (or 10 μl of kinase buffer containing 1 mM of dithiothreitol for the reaction blanks). At the end of the various additions, the final volume in each well is 100 μl, the final substrate concentration is 1.8 μM, the final inhibitor concentrations are 10 μM, 3.33 μM, 1.11 μM, 0.37 μM, 0.123 μM, 0.041 μM and 0.014 μM (depending on the concentration of the intermediate dilution), the final ATP concentration is 1 μM, the final amount of ^33P is 1.5 μCi/well, and the final concentration of CDK4/cyclin D1 complex is 25 nM.
After all of the reagents have been added, the assay plate is incubated at 30° C. with orbital stirring at 650 rpm. Following incubation, the plate is washed three times with 300 μl per well of PBS buffer (phosphate buffered saline, pH=7.4 with neither calcium nor magnesium, reference 10010-015, Gibco BRL). The incorporation of ^33P into the substrate peptide is measured by scintillation counting using a Packard Topcount.NXT instrument. The inhibitory activity of the products of the invention is evaluated by determining the concentration of inhibitor resulting in a 50% reduction in the enzymatic activity (IC50).

[2] = target: T2, human KDR enzyme (Homo sapiens, UniProt P35968); test: KDR substrate phosphorylation assay (scintillation, 96-well plate); type: biochemical
T2 construct: The cytoplasmic domain of the human KDR enzyme was cloned in the form of a GST fusion; GST; made in house; host or cells: SF21 insect cells (baculovirus, pFastBac)
T2 sequence (P35968 786-1356 limits assumed): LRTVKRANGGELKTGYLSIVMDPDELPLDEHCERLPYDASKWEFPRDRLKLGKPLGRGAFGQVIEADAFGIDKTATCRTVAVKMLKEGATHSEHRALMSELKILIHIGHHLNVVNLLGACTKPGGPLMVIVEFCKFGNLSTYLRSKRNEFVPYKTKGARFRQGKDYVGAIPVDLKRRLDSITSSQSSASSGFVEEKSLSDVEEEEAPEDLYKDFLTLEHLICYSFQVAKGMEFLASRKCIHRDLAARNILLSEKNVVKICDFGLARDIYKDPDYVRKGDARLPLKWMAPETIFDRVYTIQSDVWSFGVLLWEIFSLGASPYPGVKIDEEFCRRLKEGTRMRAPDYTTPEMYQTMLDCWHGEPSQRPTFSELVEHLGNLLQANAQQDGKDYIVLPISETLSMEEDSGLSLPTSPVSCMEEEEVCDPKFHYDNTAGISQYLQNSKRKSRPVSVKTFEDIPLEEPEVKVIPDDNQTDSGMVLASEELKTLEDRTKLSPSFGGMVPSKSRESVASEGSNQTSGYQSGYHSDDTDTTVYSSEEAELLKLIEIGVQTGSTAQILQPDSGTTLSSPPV
Method in brief: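 GST-fused cytoplasmic domain of human KDR (Sf21-expressed, ~60% pure; 100 ng) mixed with compound at 4 °C in MOPS buffer pH 7.2 with Mg2+/Mn2+, DTT, EGTA, vanadate, NaF. Started with 2 μg GST-PLCγ SH2-SH3, γ33P-ATP and cold ATP (2 μM in starting solution); 1 h, 37 °C, EDTA stop. Result: % inhibition vs no-compound control.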

IC50 [1] [nM] | IC50 [2] [nM] | melting point [°C] | Compound
132 |  |  | Nc1n[nH]c2cc(-c3ccc(NS(=O)(=O)c4cccc(Cl)c4Cl)cc3)ccc12 [Example 2, 1-[4-(3-Amino-1H-indazol-6-yl)phenyl]-2,3-dichlorobenzenesulfonamide hydrochloride]
145 | 864 | 196 | O=C(Nc1n[nH]c2cc(-c3ccc(NS(=O)(=O)c4cccc(Cl)c4Cl)cc3)ccc12)c1ccsc1 [Example 3, 3-Thiophenecarboxylic acid {6-[4-(2,3dichlorobenzenesulfonylamino)phenyl]-1H-indazol-3-yl}amide]
55 | 1870 |  | O=C(Nc1n[nH]c2c(F)c(-c3ccc(NS(=O)(=O)c4cccc(Cl)c4Cl)cc3)ccc12)c1ccsc1 [Example 5, 3-Thiophenecarboxylic acid {6-[4-(2,3-dichlorobenzenesulfonylamino)-7-fluorophenyl]-1H-indazol-3-yl}amide]
117 | 6590 |  | Nc1n[nH]c2c(F)c(-c3ccc(NS(=O)(=O)c4cccc(Cl)c4Cl)cc3)ccc12 [Example 8, 1-[4-(3-Amino-1H-indazol-6-yl)-7-fluorophenyl]-2,3-dichlorobenzenesulfonamide hydrochloride]
